Test results reported in patent US20210186970A1, “SELECTIVE CALCIUM CHANNEL ANTAGONISTS” (Northwestern University, priority 2011, published 2021).
Where two headings read alike, the source gives them in different places.

Key:
[1] = biological target: T1, Cav1.3 L-type Ca channels (Rattus norvegicus, UniProt P27732); test: FLIPR Fluo-8 calcium assay, Cav1.3 channel inhibition in HEK293 cells; assay type: cell-based; conditions: for IC50: FLIPR, HEK293, value (±SD); for Selectivity: ratio of IC50 Cav1.2 to Cav1.3
T1 construct: expressed in transfected cells; host or cells: HEK293

[2] = biological target: Cav1.2 L-type Ca channels (Oryctolagus cuniculus, UniProt P15381); test: FLIPR Fluo-8 calcium assay, Cav1.2 channel inhibition in HEK293 cells
[3] = IC50 (μM) CaV1.3, first library
[4] = IC50 (μM) CaV1.2, first library, FLIPR, HEK293, value (±SD)
[5] = first library, read-out: IC50 (μM) CaV1.3

Chain of Cav1.2 L-type Ca channels (P15381 whole entry): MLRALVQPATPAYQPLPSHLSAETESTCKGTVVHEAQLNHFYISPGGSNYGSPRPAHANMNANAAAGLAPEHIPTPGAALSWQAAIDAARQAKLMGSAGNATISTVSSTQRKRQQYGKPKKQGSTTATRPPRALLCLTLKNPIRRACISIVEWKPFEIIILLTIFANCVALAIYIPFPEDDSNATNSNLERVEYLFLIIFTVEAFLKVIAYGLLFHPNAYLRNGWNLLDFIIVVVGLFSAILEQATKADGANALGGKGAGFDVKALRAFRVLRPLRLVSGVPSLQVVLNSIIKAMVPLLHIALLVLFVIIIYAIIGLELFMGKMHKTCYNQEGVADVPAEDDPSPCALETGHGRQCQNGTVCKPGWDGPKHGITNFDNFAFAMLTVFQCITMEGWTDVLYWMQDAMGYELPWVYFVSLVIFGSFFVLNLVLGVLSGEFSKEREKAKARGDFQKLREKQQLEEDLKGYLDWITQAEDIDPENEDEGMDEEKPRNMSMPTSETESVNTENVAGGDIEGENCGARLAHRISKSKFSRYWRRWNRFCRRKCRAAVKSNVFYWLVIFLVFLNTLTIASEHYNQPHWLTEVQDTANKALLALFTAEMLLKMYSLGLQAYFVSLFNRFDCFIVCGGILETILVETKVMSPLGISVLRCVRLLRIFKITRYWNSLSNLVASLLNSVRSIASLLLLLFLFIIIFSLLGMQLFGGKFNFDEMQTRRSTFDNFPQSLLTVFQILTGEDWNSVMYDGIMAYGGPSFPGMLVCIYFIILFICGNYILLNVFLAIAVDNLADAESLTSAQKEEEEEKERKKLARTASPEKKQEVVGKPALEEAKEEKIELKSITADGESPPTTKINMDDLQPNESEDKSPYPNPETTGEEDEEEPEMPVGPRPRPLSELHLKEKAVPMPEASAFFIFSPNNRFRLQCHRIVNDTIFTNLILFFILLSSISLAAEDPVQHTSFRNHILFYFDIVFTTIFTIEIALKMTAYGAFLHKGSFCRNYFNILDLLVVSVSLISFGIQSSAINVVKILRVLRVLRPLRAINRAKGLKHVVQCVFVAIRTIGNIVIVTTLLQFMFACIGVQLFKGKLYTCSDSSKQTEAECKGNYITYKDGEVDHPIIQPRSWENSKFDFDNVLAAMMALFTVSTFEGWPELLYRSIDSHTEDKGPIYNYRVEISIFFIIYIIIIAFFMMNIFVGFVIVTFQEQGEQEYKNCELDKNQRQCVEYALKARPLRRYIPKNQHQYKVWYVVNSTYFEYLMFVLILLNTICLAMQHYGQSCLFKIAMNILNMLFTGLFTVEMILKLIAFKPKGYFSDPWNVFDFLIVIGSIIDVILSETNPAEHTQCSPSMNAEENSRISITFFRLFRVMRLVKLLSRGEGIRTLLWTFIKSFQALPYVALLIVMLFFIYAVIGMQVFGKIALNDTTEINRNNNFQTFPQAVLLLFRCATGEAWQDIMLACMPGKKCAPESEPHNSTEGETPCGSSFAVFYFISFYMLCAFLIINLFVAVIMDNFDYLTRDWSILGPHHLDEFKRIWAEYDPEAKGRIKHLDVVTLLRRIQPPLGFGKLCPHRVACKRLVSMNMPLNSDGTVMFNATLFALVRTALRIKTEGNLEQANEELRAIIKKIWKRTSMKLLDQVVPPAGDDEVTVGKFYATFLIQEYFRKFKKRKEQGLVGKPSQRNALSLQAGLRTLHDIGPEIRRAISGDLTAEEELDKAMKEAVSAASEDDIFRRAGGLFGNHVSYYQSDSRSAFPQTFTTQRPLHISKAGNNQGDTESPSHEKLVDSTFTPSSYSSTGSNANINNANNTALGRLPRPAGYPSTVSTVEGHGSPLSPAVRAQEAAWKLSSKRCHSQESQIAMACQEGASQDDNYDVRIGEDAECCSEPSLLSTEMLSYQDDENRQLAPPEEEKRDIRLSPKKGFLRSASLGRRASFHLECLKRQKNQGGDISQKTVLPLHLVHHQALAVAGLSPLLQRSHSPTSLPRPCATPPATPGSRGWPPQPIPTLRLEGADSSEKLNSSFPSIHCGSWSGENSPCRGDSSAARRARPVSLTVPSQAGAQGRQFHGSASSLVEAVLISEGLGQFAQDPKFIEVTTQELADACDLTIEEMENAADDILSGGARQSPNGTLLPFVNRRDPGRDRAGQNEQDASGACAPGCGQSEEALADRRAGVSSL
Chain of Cav1.2 L-type Ca channels (P54284 whole entry partner): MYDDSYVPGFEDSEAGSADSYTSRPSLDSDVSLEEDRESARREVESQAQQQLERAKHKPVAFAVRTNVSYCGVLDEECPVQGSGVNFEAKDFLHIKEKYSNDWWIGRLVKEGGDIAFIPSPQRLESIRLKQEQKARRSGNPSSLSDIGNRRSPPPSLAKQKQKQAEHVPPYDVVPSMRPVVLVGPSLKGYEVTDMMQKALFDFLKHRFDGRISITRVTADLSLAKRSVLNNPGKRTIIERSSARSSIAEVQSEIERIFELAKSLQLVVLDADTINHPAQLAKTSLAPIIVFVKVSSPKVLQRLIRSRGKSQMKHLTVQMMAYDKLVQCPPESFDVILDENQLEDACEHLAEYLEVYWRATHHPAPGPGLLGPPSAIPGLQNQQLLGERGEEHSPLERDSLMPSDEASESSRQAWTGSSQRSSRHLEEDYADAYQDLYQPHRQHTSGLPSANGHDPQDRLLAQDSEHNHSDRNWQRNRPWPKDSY
Chain of Cav1.2 L-type Ca channels (P54289 25-956 partner limits assumed): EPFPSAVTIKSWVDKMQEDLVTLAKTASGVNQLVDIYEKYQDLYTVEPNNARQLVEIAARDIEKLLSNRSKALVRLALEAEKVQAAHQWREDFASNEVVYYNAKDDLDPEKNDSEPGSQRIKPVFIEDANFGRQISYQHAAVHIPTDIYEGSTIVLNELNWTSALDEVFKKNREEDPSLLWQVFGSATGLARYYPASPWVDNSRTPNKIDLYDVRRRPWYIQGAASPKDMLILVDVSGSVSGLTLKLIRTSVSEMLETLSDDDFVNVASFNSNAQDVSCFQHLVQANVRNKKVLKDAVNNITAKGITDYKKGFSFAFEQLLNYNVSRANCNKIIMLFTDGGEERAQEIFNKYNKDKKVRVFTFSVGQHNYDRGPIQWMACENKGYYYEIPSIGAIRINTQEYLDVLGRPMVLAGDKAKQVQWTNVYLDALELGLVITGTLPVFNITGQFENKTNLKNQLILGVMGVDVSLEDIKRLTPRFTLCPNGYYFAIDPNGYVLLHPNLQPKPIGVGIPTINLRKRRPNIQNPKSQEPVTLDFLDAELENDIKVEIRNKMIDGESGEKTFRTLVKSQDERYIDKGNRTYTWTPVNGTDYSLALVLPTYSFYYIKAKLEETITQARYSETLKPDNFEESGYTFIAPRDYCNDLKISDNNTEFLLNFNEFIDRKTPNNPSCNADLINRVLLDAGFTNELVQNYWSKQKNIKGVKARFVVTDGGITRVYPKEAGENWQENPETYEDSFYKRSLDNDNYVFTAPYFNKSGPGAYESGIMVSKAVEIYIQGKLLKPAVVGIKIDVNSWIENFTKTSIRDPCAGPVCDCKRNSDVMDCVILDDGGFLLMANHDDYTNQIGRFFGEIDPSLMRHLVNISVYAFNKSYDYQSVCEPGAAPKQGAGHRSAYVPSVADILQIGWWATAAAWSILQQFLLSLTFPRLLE
Chain of Cav1.2 L-type Ca channels (P54289 957-1103 partner limits assumed): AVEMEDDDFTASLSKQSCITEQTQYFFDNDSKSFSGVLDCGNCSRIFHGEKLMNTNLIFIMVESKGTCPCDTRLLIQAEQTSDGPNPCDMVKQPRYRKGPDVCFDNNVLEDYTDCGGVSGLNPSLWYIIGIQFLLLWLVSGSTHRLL

SMILES | IC50 [1, 3] [µM] | Selectivity ([1]; first library) | IC50 [2, 4] [µM] | IC50 [1, 5] [µM] | IC50 [2] [µM]
O=C1CC(=O)N(Cc2ccc([N+](=O)[O-])cc2)C(=O)N1CCCCc1ccccc1 [Compound 45] | 7.7 | 0.6 | 4.4 | – | –
O=C1CC(=O)N(CCc2ccc([N+](=O)[O-])cc2)C(=O)N1CCCCc1ccccc1 [Compound 46] | 3.5 | 1.2 | 4.1 | – | –
O=C1CC(=O)N(CCc2cccc([N+](=O)[O-])c2)C(=O)N1CCCCc1ccccc1 [Compound 47] | 3 | 1.0 | 3 | – | –
O=C1CC(=O)N(Cc2ccc(Cl)cc2)C(=O)N1CCCCc1ccccc1 [Compound 48] | 2.1 | 3.7 | 7.7 | – | –
O=C1CC(=O)N(CCCc2ccccc2)C(=O)N1CCCCc1ccccc1 [Compound 49] | – | 2.0 | 2.6 | 1.3 | –
O=C1CC(=O)N(C2CCCc3ccccc32)C(=O)N1CCCCc1ccccc1 (centres unmarked) [Compound 50] | 36.5 | 0.9 | 34.1 | – | –
O=C1CC(=O)N(C2Cc3ccccc3C2)C(=O)N1CCCCc1ccccc1 [Compound 51] | – | 1.5 | 4.9 | 3.3 | –
O=C1CC(=O)N(C2CCc3ccccc32)C(=O)N1CCCCc1ccccc1 (centres unmarked) [Compound 52] | 5.3 | 1.1 | 5.7 | – | –
O=C1CC(=O)N(CCc2ccc3ccccc3c2)C(=O)N1CCCCc1ccccc1 [Compound 53] | 1.9 | 1.3 | 2.5 | – | –
O=C1CC(=O)N(CCc2ccc(Cl)c(Cl)c2)C(=O)N1CCCc1ccccc1 [Compound 54] | 4.3 | 1.6 | 6.9 | – | –
O=C1CC(=O)N(CCc2ccc(F)cc2)C(=O)N1CCCc1ccccc1 [Compound 55] | – | 1.7 | 2.2 | 1.3 | –
O=C1CC(=O)N(CCc2cccc(F)c2)C(=O)N1CCCc1ccccc1 [Compound 56] | 1.6 | 1.5 | 2.5 | – | –
O=C1CC(=O)N(Cc2cccc([N+](=O)[O-])c2)C(=O)N1CCCc1ccccc1 [Compound 57] | 16.5 | 0.8 | 13 | – | –
O=C1CC(=O)N(CCc2cccc([N+](=O)[O-])c2)C(=O)N1CCCc1ccccc1 [Compound 58] | 10.4 | 0.9 | 9.5 | – | –
O=C1CC(=O)N(Cc2ccc(Cl)cc2)C(=O)N1CCCc1ccccc1 [Compound 59] | 21.9 | 1.2 | 26 | – | –
CCCCCCCCN1C(=O)CC(=O)N(CCCc2ccccc2)C1=O [Compound 60] | – | 2.5 | 2.6 | 1.1 | –
O=C1CC(=O)N(CCc2ccc3ccccc3c2)C(=O)N1CCCc1ccccc1 [Compound 61] | 1 | 1.3 | 1.2 | – | –
O=C1CC(=O)N(CCc2ccc3ccccc3c2)C(=O)N1CCc1ccc2ccccc2c1 [Compound 62] | 2.9 | 0.6 | 1.8 | – | –
O=C1CC(=O)N(CCc2ccc3ccccc3c2)C(=O)N1CCc1ccc(Cl)c(Cl)c1 [Compound 63] | 4 | 1.0 | 3.8 | – | –
O=C1CC(=O)N(CCc2ccc3ccccc3c2)C(=O)N1CCc1ccc(F)cc1 [Compound 64] | 1.8 | 2.1 | 3.8 | – | –
O=C1CC(=O)N(Cc2cccc([N+](=O)[O-])c2)C(=O)N1CCc1ccc2ccccc2c1 [Compound 65] | 4.8 | 1.0 | 5 | – | –
O=C1CC(=O)N(Cc2ccc(Cl)cc2)C(=O)N1CCc1ccc2ccccc2c1 [Compound 66] | 1.7 | – | – | – | 2.4
